Measurements from publication PMC10528299, “Targeting FAK/PYK2 with SJP1602 for Anti-Tumor Activity in Triple-Negative Breast Cancer” (Current Issues in Molecular Biology, 2023).

Columns and labels:
Assay in all cases: Eurofins kinase profiling
Assay type in all cases: biochemical
ErbB2(h) = target: T1, ErbB2(h) (Homo sapiens, UniProt P04626); conditions: read-out: residual kinase activity ErbB2(h)
T1 construct: purchased Eurofins KinaseProfiler
Summary of the method: (§1)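 Protein kinases were run in the KinaseProfiler radiometric format with the test compound at 1 µM, and activity was measured by incorporation of radiolabeled phosphate. The assays followed the provider's standard protocols as part of a 110-kinase panel.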

PKCα(h) = target: T2, PKCα(h) (Homo sapiens, UniProt P17252); conditions: read-out: residual kinase activity PKCα(h)
T2 construct: purchased Eurofins KinaseProfiler
Summary of the method: as §1

DAPK1(h) = target: T3, DAPK1(h) (Homo sapiens, UniProt P53355); conditions: read-out: residual kinase activity DAPK1(h)
T3 construct: purchased Eurofins KinaseProfiler
Summary of the method: as §1

Lck(h) activated = target: T4, Lck(h) activated (Homo sapiens, UniProt P06239); conditions: 1 µM
T4 construct: purchased Eurofins KinaseProfiler
Summary of the method: as §1

p70S6K(h) = target: T5, p70S6K(h) (Homo sapiens, UniProt P23443); conditions: read-out: residual kinase activity p70S6K(h)
T5 construct: purchased Eurofins KinaseProfiler
Summary of the method: as §1

Ron(h) = target: T6, Ron(h) (Homo sapiens, UniProt Q04912); conditions: read-out: residual kinase activity Ron(h)
T6 construct: purchased Eurofins KinaseProfiler
Summary of the method: as §1

DNA-PK(h) = target: T7, DNA-PK(h) (Homo sapiens, UniProt P78527); conditions: read-out: residual kinase activity DNA-PK(h)
T7 construct: purchased Eurofins KinaseProfiler
Summary of the method: as §1

IGF-1R(h), activated = target: T8, IGF-1R(h), activated (Homo sapiens, UniProt P08069); conditions: 1 µM
T8 construct: purchased Eurofins KinaseProfiler
Summary of the method: as §1

Blk(h) = target: T9, Blk(h) (Homo sapiens, UniProt P51451); conditions: read-out: residual kinase activity Blk(h)
T9 construct: purchased Eurofins KinaseProfiler
Summary of the method: as §1

FAK(h) = target: T10, FAK(h) (Homo sapiens, UniProt Q05397); conditions: read-out: residual kinase activity FAK(h)
T10 construct: purchased Eurofins KinaseProfiler
Summary of the method: as §1

ALK(h) = target: T11, ALK(h) (Homo sapiens, UniProt Q9UM73); conditions: for remaining activity at 1 µM: read-out: residual kinase activity ALK(h)
T11 construct: purchased Eurofins KinaseProfiler
Summary of the method: as §1

PDGFRα(D842V)(h) = target: T12, PDGFRα(D842V)(h) (Homo sapiens, UniProt P16234, D842V); conditions: read-out: residual kinase activity PDGFRα(D842V)(h)
T12 construct: purchased Eurofins KinaseProfiler
Summary of the method: as §1

Abl(T315I)(h) = target: T13, Abl(T315I)(h) (Homo sapiens, UniProt P00519, T315I); conditions: read-out: residual kinase activity Abl(T315I)(h)
T13 construct: purchased Eurofins KinaseProfiler
Summary of the method: as §1

MEK1(h) = target: T14, MEK1(h) (Homo sapiens, UniProt Q02750); conditions: read-out: residual kinase activity MEK1(h)
T14 construct: purchased Eurofins KinaseProfiler
Summary of the method: as §1

IKKε(h) = target: T15, IKKε(h) (Homo sapiens, UniProt Q14164); conditions: read-out: residual kinase activity IKKε(h)
T15 construct: purchased Eurofins KinaseProfiler
T15 sequence (Q14164 1-716): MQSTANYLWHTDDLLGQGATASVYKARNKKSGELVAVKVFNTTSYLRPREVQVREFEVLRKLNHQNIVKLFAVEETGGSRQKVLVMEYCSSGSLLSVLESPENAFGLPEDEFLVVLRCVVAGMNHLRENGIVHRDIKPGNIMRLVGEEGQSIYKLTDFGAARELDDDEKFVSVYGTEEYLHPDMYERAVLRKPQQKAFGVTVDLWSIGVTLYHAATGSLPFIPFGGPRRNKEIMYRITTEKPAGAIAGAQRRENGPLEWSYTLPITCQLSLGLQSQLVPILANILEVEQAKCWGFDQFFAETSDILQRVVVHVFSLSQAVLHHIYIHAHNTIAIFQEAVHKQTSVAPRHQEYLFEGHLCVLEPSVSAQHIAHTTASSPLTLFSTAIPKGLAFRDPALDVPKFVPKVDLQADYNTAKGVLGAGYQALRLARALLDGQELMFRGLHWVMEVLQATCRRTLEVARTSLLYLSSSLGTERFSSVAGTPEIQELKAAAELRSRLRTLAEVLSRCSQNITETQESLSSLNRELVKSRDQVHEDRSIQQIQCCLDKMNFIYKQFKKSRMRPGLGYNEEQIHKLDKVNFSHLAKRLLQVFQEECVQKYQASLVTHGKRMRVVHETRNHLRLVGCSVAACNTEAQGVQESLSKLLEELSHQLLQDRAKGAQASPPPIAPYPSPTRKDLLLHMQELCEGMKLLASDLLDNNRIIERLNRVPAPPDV
Summary of the method: as §1

Fer(h) = target: T16, Fer(h) (Homo sapiens, UniProt P16591); conditions: read-out: residual kinase activity Fer(h)
T16 construct: purchased Eurofins KinaseProfiler
Summary of the method: as §1

Met(h) = target: T17, Met(h) (Homo sapiens, UniProt P08581); conditions: for remaining activity at 1 µM: read-out: residual kinase activity Met(h)
T17 construct: purchased Eurofins KinaseProfiler
Summary of the method: as §1

IR(h) = target: T18, IR(h) (Homo sapiens, UniProt P06213); conditions: read-out: residual kinase activity IR(h)
T18 construct: purchased Eurofins KinaseProfiler
Summary of the method: as §1

PI3 Kinase (p120g)(h) = target: T19, PI3 Kinase (p120g)(h) (Homo sapiens, UniProt P48736); conditions: read-out: residual kinase activity PI3 Kinase (p120g)(h)
T19 construct: purchased Eurofins KinaseProfiler
Summary of the method: as §1

T19 sequence (P48736 whole entry): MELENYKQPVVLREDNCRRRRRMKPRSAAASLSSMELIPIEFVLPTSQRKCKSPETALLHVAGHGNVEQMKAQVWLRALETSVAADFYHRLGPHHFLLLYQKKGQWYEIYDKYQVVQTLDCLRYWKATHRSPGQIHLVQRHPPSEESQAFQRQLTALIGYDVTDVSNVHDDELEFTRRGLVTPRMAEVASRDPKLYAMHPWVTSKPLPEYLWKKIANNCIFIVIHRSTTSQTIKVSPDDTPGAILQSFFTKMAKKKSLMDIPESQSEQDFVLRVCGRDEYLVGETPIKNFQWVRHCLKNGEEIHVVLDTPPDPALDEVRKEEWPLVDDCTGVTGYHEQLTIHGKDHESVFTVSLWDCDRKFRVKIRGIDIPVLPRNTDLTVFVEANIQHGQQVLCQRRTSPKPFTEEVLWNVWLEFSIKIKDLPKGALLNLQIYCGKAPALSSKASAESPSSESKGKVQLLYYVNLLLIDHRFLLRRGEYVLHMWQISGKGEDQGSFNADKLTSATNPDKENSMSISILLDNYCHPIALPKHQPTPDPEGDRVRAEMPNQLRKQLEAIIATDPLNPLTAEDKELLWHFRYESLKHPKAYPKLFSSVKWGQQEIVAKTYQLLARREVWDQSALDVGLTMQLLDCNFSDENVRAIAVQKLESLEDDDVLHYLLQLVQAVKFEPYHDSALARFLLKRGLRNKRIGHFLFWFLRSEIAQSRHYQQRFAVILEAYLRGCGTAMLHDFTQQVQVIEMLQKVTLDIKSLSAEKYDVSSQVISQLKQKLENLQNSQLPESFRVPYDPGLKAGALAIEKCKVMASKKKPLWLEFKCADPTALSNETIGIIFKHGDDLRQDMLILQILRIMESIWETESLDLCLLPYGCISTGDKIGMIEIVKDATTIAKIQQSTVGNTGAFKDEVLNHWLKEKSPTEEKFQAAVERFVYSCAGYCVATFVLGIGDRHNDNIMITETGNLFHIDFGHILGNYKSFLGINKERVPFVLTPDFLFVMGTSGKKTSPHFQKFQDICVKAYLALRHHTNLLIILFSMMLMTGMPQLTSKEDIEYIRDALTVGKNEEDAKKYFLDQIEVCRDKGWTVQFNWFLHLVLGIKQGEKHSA
T18 sequence (P06213 28-1382): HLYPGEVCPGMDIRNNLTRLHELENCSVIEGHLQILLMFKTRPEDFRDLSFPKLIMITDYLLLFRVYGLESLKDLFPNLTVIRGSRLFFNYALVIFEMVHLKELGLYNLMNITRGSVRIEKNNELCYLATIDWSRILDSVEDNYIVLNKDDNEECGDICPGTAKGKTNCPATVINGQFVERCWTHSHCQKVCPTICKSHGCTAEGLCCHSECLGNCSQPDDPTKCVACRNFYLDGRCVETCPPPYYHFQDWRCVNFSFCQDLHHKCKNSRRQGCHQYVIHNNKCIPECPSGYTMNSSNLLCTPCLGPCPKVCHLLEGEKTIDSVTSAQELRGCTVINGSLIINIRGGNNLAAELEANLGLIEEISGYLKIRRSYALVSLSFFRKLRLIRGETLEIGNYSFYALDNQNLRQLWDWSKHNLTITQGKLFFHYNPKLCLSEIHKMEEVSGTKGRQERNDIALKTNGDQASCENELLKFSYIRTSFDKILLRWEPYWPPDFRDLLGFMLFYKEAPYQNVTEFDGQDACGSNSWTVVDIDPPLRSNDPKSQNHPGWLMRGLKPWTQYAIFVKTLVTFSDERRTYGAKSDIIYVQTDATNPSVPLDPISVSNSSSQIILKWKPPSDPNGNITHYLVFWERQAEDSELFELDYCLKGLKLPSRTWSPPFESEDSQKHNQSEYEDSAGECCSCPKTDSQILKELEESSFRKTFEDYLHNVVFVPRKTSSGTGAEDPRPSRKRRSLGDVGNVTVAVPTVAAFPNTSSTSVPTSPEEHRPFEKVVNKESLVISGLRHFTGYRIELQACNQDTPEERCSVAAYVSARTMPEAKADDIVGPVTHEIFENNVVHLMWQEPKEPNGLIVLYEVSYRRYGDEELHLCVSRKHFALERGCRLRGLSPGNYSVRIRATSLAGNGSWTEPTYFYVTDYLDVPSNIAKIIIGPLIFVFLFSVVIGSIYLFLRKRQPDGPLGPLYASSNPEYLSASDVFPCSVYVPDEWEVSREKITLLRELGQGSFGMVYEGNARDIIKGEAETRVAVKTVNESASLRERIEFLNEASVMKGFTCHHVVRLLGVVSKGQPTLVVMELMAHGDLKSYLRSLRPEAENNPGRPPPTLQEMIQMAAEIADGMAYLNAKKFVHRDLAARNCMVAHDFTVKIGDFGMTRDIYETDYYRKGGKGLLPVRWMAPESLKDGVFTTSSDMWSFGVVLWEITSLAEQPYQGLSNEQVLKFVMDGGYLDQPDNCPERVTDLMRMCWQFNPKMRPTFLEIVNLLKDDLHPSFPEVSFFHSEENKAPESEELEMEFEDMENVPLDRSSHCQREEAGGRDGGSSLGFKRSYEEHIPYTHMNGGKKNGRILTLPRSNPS
T8 sequence (P08069 31-1367): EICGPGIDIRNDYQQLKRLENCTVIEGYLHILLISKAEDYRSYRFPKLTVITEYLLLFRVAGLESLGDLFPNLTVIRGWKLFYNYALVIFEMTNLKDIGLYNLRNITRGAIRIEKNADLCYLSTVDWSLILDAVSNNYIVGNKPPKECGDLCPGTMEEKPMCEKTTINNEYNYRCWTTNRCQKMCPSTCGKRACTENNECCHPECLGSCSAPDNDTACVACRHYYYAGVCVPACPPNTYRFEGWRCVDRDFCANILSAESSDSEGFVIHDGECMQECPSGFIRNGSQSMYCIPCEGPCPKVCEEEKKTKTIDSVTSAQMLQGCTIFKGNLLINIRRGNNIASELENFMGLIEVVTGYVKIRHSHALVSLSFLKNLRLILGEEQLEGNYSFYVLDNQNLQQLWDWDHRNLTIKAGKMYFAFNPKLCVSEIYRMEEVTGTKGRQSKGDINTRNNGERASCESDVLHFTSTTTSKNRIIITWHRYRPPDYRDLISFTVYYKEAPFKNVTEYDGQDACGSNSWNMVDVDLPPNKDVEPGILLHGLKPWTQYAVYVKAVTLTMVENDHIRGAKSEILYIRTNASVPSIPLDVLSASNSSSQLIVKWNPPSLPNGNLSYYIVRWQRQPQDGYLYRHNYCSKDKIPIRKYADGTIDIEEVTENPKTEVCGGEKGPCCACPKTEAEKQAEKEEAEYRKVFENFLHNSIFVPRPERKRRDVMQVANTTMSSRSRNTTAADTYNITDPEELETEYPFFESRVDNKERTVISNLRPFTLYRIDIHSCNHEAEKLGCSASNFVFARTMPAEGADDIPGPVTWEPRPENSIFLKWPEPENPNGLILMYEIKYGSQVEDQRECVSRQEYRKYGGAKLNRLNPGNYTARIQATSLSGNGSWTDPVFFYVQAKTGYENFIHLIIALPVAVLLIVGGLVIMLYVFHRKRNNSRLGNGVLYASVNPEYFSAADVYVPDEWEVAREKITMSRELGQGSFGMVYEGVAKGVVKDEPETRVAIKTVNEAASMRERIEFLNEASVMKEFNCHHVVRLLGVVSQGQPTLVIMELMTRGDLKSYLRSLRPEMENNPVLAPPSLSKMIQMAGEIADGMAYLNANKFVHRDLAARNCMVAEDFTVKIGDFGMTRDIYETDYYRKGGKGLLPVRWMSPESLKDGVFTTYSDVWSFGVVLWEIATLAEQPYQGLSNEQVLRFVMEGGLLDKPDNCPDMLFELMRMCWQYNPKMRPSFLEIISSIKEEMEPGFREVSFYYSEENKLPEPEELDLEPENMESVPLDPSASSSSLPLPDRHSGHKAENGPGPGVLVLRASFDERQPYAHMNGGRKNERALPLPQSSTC
T14 sequence (Q02750 whole entry): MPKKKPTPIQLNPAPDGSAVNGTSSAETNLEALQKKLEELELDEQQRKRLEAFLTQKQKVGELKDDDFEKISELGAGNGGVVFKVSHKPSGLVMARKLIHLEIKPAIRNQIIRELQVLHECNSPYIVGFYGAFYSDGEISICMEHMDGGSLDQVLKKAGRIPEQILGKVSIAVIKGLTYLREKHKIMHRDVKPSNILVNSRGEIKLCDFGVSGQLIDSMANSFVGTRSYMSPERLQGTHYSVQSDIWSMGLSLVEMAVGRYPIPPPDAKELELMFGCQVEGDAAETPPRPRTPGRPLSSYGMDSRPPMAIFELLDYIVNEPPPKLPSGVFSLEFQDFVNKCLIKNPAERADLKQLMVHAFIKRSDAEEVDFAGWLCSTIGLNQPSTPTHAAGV
T9 sequence (P51451 whole entry): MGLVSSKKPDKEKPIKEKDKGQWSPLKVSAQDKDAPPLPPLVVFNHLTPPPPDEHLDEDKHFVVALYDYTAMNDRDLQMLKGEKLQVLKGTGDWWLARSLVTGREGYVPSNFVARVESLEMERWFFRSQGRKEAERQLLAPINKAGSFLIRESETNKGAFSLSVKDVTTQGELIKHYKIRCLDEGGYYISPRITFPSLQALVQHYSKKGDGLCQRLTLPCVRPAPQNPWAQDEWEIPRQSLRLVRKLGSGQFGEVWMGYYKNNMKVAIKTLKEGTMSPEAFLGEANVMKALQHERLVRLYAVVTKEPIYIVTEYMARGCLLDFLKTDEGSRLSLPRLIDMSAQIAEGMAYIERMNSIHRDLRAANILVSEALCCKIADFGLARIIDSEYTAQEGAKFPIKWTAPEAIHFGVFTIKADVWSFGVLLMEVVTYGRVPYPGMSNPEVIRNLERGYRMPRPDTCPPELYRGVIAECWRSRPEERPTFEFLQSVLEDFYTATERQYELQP

Row | remaining activity at 1 µM (ErbB2(h)) | remaining activity at 1 µM (PKCα(h)) | remaining activity at 1 µM (DAPK1(h)) | residual kinase activity Lck(h) activated (Lck(h) activated) | remaining activity at 1 µM (p70S6K(h)) | remaining activity at 1 µM (Ron(h)) | remaining activity at 1 µM (DNA-PK(h)) | residual kinase activity IGF-1R(h), activated (IGF-1R(h), activated) | remaining activity at 1 µM (Blk(h)) | remaining activity at 1 µM (FAK(h)) | remaining activity at 1 µM (ALK(h)) | remaining activity at 1 µM (PDGFRα(D842V)(h)) | remaining activity at 1 µM (Abl(T315I)(h)) | remaining activity at 1 µM (MEK1(h)) | remaining activity at 1 µM (IKKε(h)) | remaining activity at 1 µM (Fer(h)) | remaining activity at 1 µM (Met(h)) | remaining activity at 1 µM (IR(h)) | remaining activity at 1 µM (PI3 Kinase (p120g)(h)) | SMILES | other results
1 | 122% | 92% | 94% | 58 | 98% | 72% | 85% | 74 | 62% | -6% | 96% | 87% | 44% | 93% | 88% | 31% | 42% | 62% | 104% | CNC(=O)c1ccc(Nc2ncc(C(F)(F)F)c(NCc3nccnc3N(C)S(C)(=O)=O)n2)cc1 [VS-6063, Defactinib] | 
2 | 94% | 95% | 83% | 90 | 69% | 91% | 98% | 108 | 117% | -1% | 73% | 119% | 92% | 101% | 102% | 105% | 76% | 105% | 101% | CONC(=O)c1ccccc1Nc1cc(Nc2cc(C)nn2C(C)C)ncc1Cl [GSK2256098] | 

Row | SMILES | remaining activity at 1 µM (ErbB2(h)) | remaining activity at 1 µM (PKCα(h)) | remaining activity at 1 µM (DAPK1(h)) | residual kinase activity Lck(h) activated (Lck(h) activated) | remaining activity at 1 µM (p70S6K(h)) | remaining activity at 1 µM (Ron(h)) | remaining activity at 1 µM (DNA-PK(h)) | residual kinase activity IGF-1R(h), activated (IGF-1R(h), activated) | remaining activity at 1 µM (Blk(h)) | remaining activity at 1 µM (FAK(h)) | remaining activity at 1 µM (ALK(h)) | remaining activity at 1 µM (PDGFRα(D842V)(h)) | remaining activity at 1 µM (Abl(T315I)(h)) | remaining activity at 1 µM (MEK1(h)) | remaining activity at 1 µM (IKKε(h)) | remaining activity at 1 µM (Fer(h)) | remaining activity at 1 µM (Met(h)) | remaining activity at 1 µM (IR(h)) | remaining activity at 1 µM (PI3 Kinase (p120g)(h)) | other results
3 | CNC(=O)c1cccc(C)c1Nc1nc(Nc2ccc(N3CCN(C4C5CC6CC4CC(O)(C6)C5)CC3)cc2OC)ncc1C(F)(F)F (centres unmarked) [SJP1602, 2-((2-((4-(4-((2s,5r)-5-hydroxyadamantan-2-yl)piperazin-1-yl)-2-methoxyphenyl)amino)-5-(trifluoromethyl)pyrimidin-4-yl)amino)-N,3-dimethylbenzamide] | 113% | 100% | 108% | 107 | 124% | 75% | 98% | 105 | 85% | 3% | 28% | 141% | 106% | 98% | 103% | 68% | 21% | 103% | 85% | inhibition at 1 µM (ALK(h)): 72%; inhibition at 1 µM (Met(h)): 79%
